“And” between values parts separate entries of the source, which are not always exact repeats. Identical values can stand only once.
Columns and labels:
[1] = test system: target lesions of PDAC, CRLM, CCA and HCC; experiment: Morphological radiological response, MRI, RECIST 1.1; format: in vivo, human; design: key to RECIST1.1 response after ITPP / RECIST1.1 response after chemotherapy / RespITPP_Recist / RespChemo_Recist: CR = complete response; PR = partial response; SD = stable disease; PD = progressive disease; Lesion1_pre_DM / Lesion1_post_DM / Lesion1_chemo_DM / Lesion2_pre_DM / Lesion2_post_DM / Lesion2_chemo_DM / Lesion3_pre_DM / Lesion3_post_DM / Lesion3_chemo_DM / Lesion4_pre_DM / Lesion4_post_DM / Lesion4_chemo_DM / Lesion5_pre_DM / Lesion5_post_DM / Lesion5_chemo_DM: unit not given here; conditions: for RECIST1.1 response after chemotherapy: chemotherapy subsequent to ITPP; for RespITPP_Recist / RespChemo_Recist: RECIST
Procedure: Radiological assessment, consisting of abdominal MRI and FDG-PET-CT, was performed before ITPP administration and after the 3-week treatment course. Where possible, radiological re-evaluation was performed after 3–6 cycles of chemotherapy. Radiological responses were evaluated according to the RECIST 1.1 criteria[56] for MRI and EORTC criteria[57] for FDG-PET-CT imaging.
Then first calculate the sum of diameters (DM) and SUV-activities of radiological target lesions before ITPP (sum_pre), after ITPP (sum_post) and after subsequent chemotherapy (sum_chemo) for assessment of morphological RECIST1.1 (diameter) and metabolical EORTC (SUV activiy) responses.
Patient 1 (dropout after only 2 infusions and subsequent death due to rapid oncological progression) is excluded for radiological assessment due to no follow up imaging available.
In a second step, we calculate percent changes (PC) of diameter and SUV activity between before ITPP, after ITPP and after chemotherapy.

ANG2 = experiment: Serum angiogenesis marker, multiplex bead-based immunoassay (LEGENDplex); format: in vivo, human; design: ANG2: unit not given here; conditions: for ANG2: serum, duplicate wells
[2] = design: method as in unpublished data obtained from NormOxys; conditions: minipigs, once weekly; ref unpublished data obtained from NormOxys; cited from earlier work
[3] = design: method as in Swissmedic special application Nr. SBH12-1310; conditions: one cancer patient, monotherapy 5600 mg/m2 once a week for 5 weeks; ref Swissmedic special application Nr. SBH12-1310; cited from earlier work

In the case of `O=P1(O)OC2C3OP(=O)(O)OP(=O)(O)OC3C3OP(=O)(O)OP(=O)(O)OC3C2OP(=O)(O)O1` (stereo not drawn) [ITPP, Myo-inositol trispyrophosphate], the “Patients with partial response (PR), RECIST” value ([1]; after chemotherapy subsequent to ITPP, 20 patients) is reported as 2, the “Share of patients with PR” value ([1]; after subsequent chemotherapy) is reported as 10% and the “Share of patients with SD” value ([1]; after subsequent chemotherapy) is reported as 60%. For the same compound, the “RECIST1.1 response after ITPP” value ([1]; individual patients, cohort 1 (1866 mg/m2)) was “PD and SD”, the “RECIST1.1 response after chemotherapy” value ([1]; individual patients, cohort 1, 1866 mg/m2) was “SD” and the “RECIST1.1 response after ITPP” value ([1]; individual patients, cohort 2 (3732 mg/m2)) was “SD and PD”. For the same compound, the “RECIST1.1 response after chemotherapy” value ([1]; individual patients, cohort 2, 3732 mg/m2) was “SD”, the “RECIST1.1 response after ITPP” value ([1]; individual patients, cohort 3 (5600 mg/m2)) was “PD and SD” and the “RECIST1.1 response after chemotherapy” value ([1]; individual patients, cohort 3, 5600 mg/m2) was “PD and SD”. The “RECIST1.1 response after ITPP” value ([1]; individual patients, cohort 4 (7000 mg/m2)) was “PD and SD”, the “RECIST1.1 response after chemotherapy” value ([1]; individual patients, cohort 4, 7000 mg/m2) was “PR” and the “RECIST1.1 response after ITPP” value ([1]; individual patients, cohort 5 (8750 mg/m2)) was “SD and PD”. The “RECIST1.1 response after chemotherapy” value ([1]; individual patients, cohort 5, 8750 mg/m2) was “PD”, the “RECIST1.1 response after ITPP” value ([1]; individual patients, cohort 6 (10500 mg/m2)) was “PD and SD” and the “RECIST1.1 response after chemotherapy” value ([1]; individual patients, cohort 6, 10500 mg/m2) was “PD and PR and SD”. The “RECIST1.1 response after ITPP” value ([1]; individual patients, cohort 7 (12390 mg/m2)) was “PD and SD”, the “RECIST1.1 response after chemotherapy” value ([1]; individual patients, cohort 7, 12390 mg/m2) was “SD” and the “RECIST1.1 response after ITPP” value ([1]; individual patients, cohort 8 (14500 mg/m2)) was “PD and SD”. The “RECIST1.1 response after chemotherapy” value ([1]; individual patients, cohort 8, 14500 mg/m2) was “PD and SD”, the Lesion1_chemo_DM ([1]; individual patients, lesion 1, after subsequent chemotherapy) was 131 and 16 and 90 and 54 and 20 and 33 and 23 and 19 and 28 and 67 and 69 and 42 and 31.4 and 10 and 36 and the Lesion1_post_DM ([1]; individual patients, lesion 1, post ITPP) was 113 and 27 and 110 and 305 and 107 and 74 and 26 and 50 and 49 and 25 and 20 and 30 and 70 and 58 and 81 and 43 and 44.6 and 33 and 17 and 12 and 42 and 164. The Lesion1_pre_DM ([1]; individual patients, lesion 1, pre ITPP (baseline)) was 114 and 27 and 111 and 293 and 106 and 73 and 22 and 26 and 48 and 43 and 49 and 17 and 20 and 21 and 24 and 71 and 50 and 82 and 59 and 43.7 and 32 and 13 and 10 and 38 and 163, the Lesion2_chemo_DM ([1]; individual patients, lesion 2, after subsequent chemotherapy) was 13 and 23 and 41 and 24 and 25 and 32 and 16 and 12 and 62 and 14 and 47 and 28.9 and 10 and 30 and 40 and the Lesion2_post_DM ([1]; individual patients, lesion 2, post ITPP) was 18 and 26 and 56 and 15 and 17 and 58 and 21 and 25 and 12 and 28 and 14 and 49 and 42 and 39.6 and 16 and 31 and 50 and 13. For the same compound, the Lesion2_pre_DM ([1]; individual patients, lesion 2, pre ITPP (baseline)) was 17 and 57 and 83 and 13 and 15 and 53 and 26 and 10 and 104 and 24 and 14 and 41 and 25 and 29.7 and 16 and 46, the Lesion3_chemo_DM ([1]; individual patients, lesion 3, after subsequent chemotherapy) was 39 and 16 and 10 and 9 and 24 and 7 and 32.6 and 8 and 28 and the Lesion3_post_DM ([1]; individual patients, lesion 3, post ITPP) was 32 and 23 and 21 and 10 and 26 and 16 and 45.1 and 30 and 14. For the same compound, the Lesion3_pre_DM ([1]; individual patients, lesion 3, pre ITPP (baseline)) was 30 and 18 and 20 and 10 and 13 and 66 and 26.6 and 31 and 12, the Lesion4_chemo_DM ([1]; individual patients, lesion 4, after subsequent chemotherapy) was 21 and 7 and 10 and 12 and 34 and the Lesion4_post_DM ([1]; individual patients, lesion 4, post ITPP) was 17 and 23 and 10 and 15 and 44. The Lesion4_pre_DM ([1]; individual patients, lesion 4, pre ITPP (baseline)) was 21 and 20 and 10 and 22 and 14 and 38, the Lesion5_chemo_DM ([1]; individual patients, lesion 5, after subsequent chemotherapy) was 10 and 18 and 9 and 11 and the Lesion5_post_DM ([1]; individual patients, lesion 5, post ITPP) was 16 and 18 and 12. The Lesion5_pre_DM ([1]; individual patients, lesion 5, pre ITPP (baseline)) was 21 and 15 and 13 and 11 and 14, the RespITPP_Recist ([1]; individual patients, morphological response after ITPP monotherapy) was “PD and SD” and the RespChemo_Recist ([1]; individual patients, morphological response after subsequent chemotherapy following ITPP) was “PD and SD and PR”. For the same compound, the NewLesion_ITPP ([1]; individual patients, new lesion after ITPP monotherapy (Yes/No)) was “Yes and No”, the NewLesion_Chemo ([1]; individual patients, new lesion after subsequent chemotherapy following ITPP (Yes/No)) was “Yes and No” and the RespITPP_Recist ([1]; response after ITPP, per individual patient, cohort c1, tumor c2) was “PD and SD”. For the same compound, the RespChemo_Recist ([1]; response after chemotherapy following ITPP, per individual patient, cohort c1, tumor c2) was “PD and SD and PR”, the “Share of patients with reduced ANG2” value (ANG2; following ITPP treatment, 27 patients) was 59.3% and the ANG2 (ANG2; Patient 25, Cohort 8, PDAC, Day 3 post) was 228.25. For the same compound, the ANG2 (ANG2; Patient 25, Cohort 8, PDAC, Day 9 post) was 251.99 and 267.93, the ANG2 (ANG2; Patient 26, Cohort 8, PDAC, Day 3 post) was 4.97 and 2.94 and the ANG2 (ANG2; Patient 26, Cohort 8, PDAC, Day 9 post) was 13.32 and 15.98. The ANG2 (ANG2; Patient 27, Cohort 8, CCC, Day 3 post) was 207.26 and 180.83, the ANG2 (ANG2; Patient 27, Cohort 8, CCC, Day 9 post) was 218.06 and 212.68 and the ANG2 (ANG2; Patient 28, Cohort 8, CRLM, Day 3 post) was 323.31 and 262.92. The ANG2 (ANG2; Patient 28, Cohort 8, CRLM, Day 9 post) was 200.18 and 179.44, the “Human equivalent dose-corrected NOAEL” value [2] was 43,750 mg/m2 and the “Effect of the drug on the disease” value [3] was “No effect”.
